Experiments:
Assay in all cases: relative viability (nuclei count vs DMSO), 5 days (fraction); higher = more cells survive
MLN4924 + Palbociclib = compound: NS(=O)(=O)OC[C@@H]1C[C@@H](n2ccc3c(N[C@H]4CCc5ccccc54)ncnc32)C[C@@H]1O [MLN4924] + CC(=O)c1c(C)c2cnc(Nc3ccc(N4CCNCC4)cn3)nc2n(C2CCCC2)c1=O [Palbociclib] (partner 0.5 µM)
In short: (§1)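 For relative viability, nuclei counts in treated wells were divided by those in vehicle wells. Lung cancer cell lines had been pin-tool dosed in 1536-well plates the day after seeding and cultured for 5 days, then fixed and stained in one step (final 0.05% Triton X-100, 1% formaldehyde, 1 ug/ml Hoechst) and imaged at 4×. Doses were one drug alone or a fixed anchor-drug dose plus five library-drug doses (not always all listed) in √10 steps, and values are duplicate-plate medians.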

Carboplatin + Navitoclax = compound: C1CC(C1)(C(=O)O)C(=O)O.[NH2-].[NH2-].[Pt+2] [Carboplatin] + CC1(C)CCC(c2ccc(Cl)cc2)=C(CN2CCN(c3ccc(C(=O)NS(=O)(=O)c4ccc(N[C@H](CCN5CCOCC5)CSc5ccccc5)c(S(=O)(=O)C(F)(F)F)c4)cc3)CC2)C1 [Navitoclax] (partner 0.5 µM)
In short: as §1

Carboplatin + AZD7762 = compound: C1CC(C1)(C(=O)O)C(=O)O.[NH2-].[NH2-].[Pt+2] [Carboplatin] + NC(=O)Nc1cc(-c2cccc(F)c2)sc1C(=O)N[C@H]1CCCNC1 [AZD7762] (partner 0.2 µM)
In short: as §1

GSK126 + Palbociclib = compound: CC[C@H](C)N1C=C(C2=C(C=C(C=C21)C3=CN=C(C=C3)N4CCNCC4)C(=O)NCC5=C(C=C(NC5=O)C)C)C [GSK126] + CC(=O)c1c(C)c2cnc(Nc3ccc(N4CCNCC4)cn3)nc2n(C2CCCC2)c1=O [Palbociclib] (partner 0.5 µM)
In short: as §1

Row | Cell Line | relative viability (MLN4924 + Palbociclib; first compound 0.04 µM) | relative viability (MLN4924 + Palbociclib; first compound 0.1265 µM) | relative viability (MLN4924 + Palbociclib; first compound 0.4 µM) | relative viability (MLN4924 + Palbociclib; first compound 1.265 µM) | relative viability (MLN4924 + Palbociclib; first compound 4 µM) | relative viability (Carboplatin + Navitoclax; first compound 0.08 µM) | relative viability (Carboplatin + Navitoclax; first compound 0.253 µM) | relative viability (Carboplatin + Navitoclax; first compound 0.8 µM) | relative viability (Carboplatin + Navitoclax; first compound 2.53 µM) | relative viability (Carboplatin + Navitoclax; first compound 8 µM) | relative viability (Carboplatin + AZD7762; first compound 0.08 µM) | relative viability (Carboplatin + AZD7762; first compound 0.253 µM) | relative viability (Carboplatin + AZD7762; first compound 0.8 µM) | relative viability (Carboplatin + AZD7762; first compound 2.53 µM) | relative viability (Carboplatin + AZD7762; first compound 8 µM) | relative viability (GSK126 + Palbociclib; first compound 0.08 µM) | relative viability (GSK126 + Palbociclib; first compound 0.253 µM) | relative viability (GSK126 + Palbociclib; first compound 0.8 µM) | relative viability (GSK126 + Palbociclib; first compound 2.53 µM) | relative viability (GSK126 + Palbociclib; first compound 8 µM)
1 | NCI-H2087 | 0.184 | 0.184 | 0.19 | 0.0803 | 0.093 | 0.944 | 1.03 | 0.944 | 1.01 | 0.895 | 1.38 | 1.48 | 1.2 | 1.12 | 0.939 | 0.217 | 0.215 | 0.191 | 0.212 | 0.206
2 | NCI-H596 | – | – | – | – | – | 1 | 0.952 | 0.803 | 0.74 | 0.695 | 1.25 | 1.18 | 1.09 | 0.885 | 0.693 | – | – | – | – | –
3 | ChaGo-K-1 | 0.75 | 0.419 | 0.365 | 0.184 | 0.159 | 1.17 | 1.01 | 0.944 | 0.798 | 0.53 | 0.935 | 0.866 | 0.891 | 0.817 | 0.639 | 0.93 | 0.905 | 0.914 | 1.04 | 0.914
4 | SW 1573 | 0.375 | 0.306 | 0.155 | 0.0802 | 0.0896 | 0.91 | 1.03 | 0.922 | 1.1 | 0.543 | – | – | – | – | – | 0.496 | 0.472 | 0.435 | 0.361 | 0.403
5 | LCLC-97TM1 | 0.185 | 0.114 | 0.0981 | 0.0625 | 0.0723 | 0.401 | – | 0.424 | 0.391 | 0.33 | 0.221 | 0.336 | 0.367 | 0.163 | 0.228 | 0.283 | 0.265 | 0.232 | 0.308 | 0.255
6 | HCC-366 | 0.389 | 0.374 | 0.336 | 0.167 | 0.0328 | 1.08 | 1.12 | 1.13 | 1.02 | 0.753 | 0.442 | 0.256 | 0.155 | 0.126 | 0.0971 | 0.391 | 0.399 | 0.425 | 0.407 | 0.374
7 | HARA | 0.324 | 0.233 | 0.169 | 0.0893 | 0.147 | 1.1 | 1.16 | 1.08 | 1.07 | 1.09 | 0.279 | 0.344 | 0.265 | 0.279 | 0.383 | 0.325 | 0.238 | 0.249 | 0.296 | 0.279
8 | NCI-H1915 | 0.501 | 0.396 | 0.389 | 0.161 | 0.121 | 0.795 | 0.751 | 0.745 | 0.752 | 0.579 | 0.64 | 0.706 | 0.679 | 0.647 | 0.39 | 0.554 | 0.496 | 0.516 | 0.56 | 0.583
9 | NCI-H1650 | 0.286 | 0.221 | 0.19 | 0.131 | 0.136 | 1.33 | 1.11 | 1.13 | 1.07 | 0.726 | – | – | – | – | – | 0.393 | 0.359 | 0.37 | 0.377 | 0.32
10 | NCI-H650 | 0.307 | 0.182 | 0.159 | 0.136 | 0.166 | – | – | – | – | – | 0.985 | 0.948 | 0.778 | 0.863 | 0.721 | 0.349 | 0.315 | 0.331 | 0.322 | 0.352
11 | NCI-H522 | 0.835 | 0.693 | 0.741 | 0.348 | 0.37 | – | – | – | – | – | 0.783 | 0.74 | 0.876 | 0.908 | 0.728 | 1.09 | 0.772 | 0.991 | 1.06 | 1.07
12 | Calu-6 | – | – | – | – | – | 0.931 | 0.77 | 0.824 | 0.737 | 0.296 | – | – | – | – | – | – | – | – | – | –
13 | NCI-H520 | 0.224 | 0.226 | 0.153 | 0.145 | 0.156 | 1.16 | 1.09 | 0.961 | 1.02 | 0.857 | – | – | – | – | – | 0.21 | 0.233 | 0.221 | 0.209 | 0.268
14 | NCI-H661 | 0.421 | 0.427 | 0.34 | 0.292 | 0.366 | – | – | – | – | – | – | – | – | – | – | 0.43 | 0.419 | 0.414 | 0.43 | 0.431
15 | NCI-H2009 | 0.0712 | 0.0898 | 0.0671 | 0.0534 | 0.0501 | 1.12 | 1.08 | 1.09 | 1.04 | 0.733 | – | – | – | – | – | 0.183 | 0.176 | 0.181 | 0.257 | 0.322
16 | IA-LM | – | – | – | – | – | 0.756 | 0.553 | 0.826 | 0.675 | 0.532 | – | – | – | – | – | – | – | – | – | –
17 | EBC-1 | – | – | – | – | – | 0.479 | 0.364 | 0.443 | 0.401 | 0.33 | – | – | – | – | – | – | – | – | – | –
18 | SW 900 | – | 0.439 | 0.388 | 0.231 | 0.231 | – | – | – | – | – | 0.651 | 0.689 | 0.531 | 0.533 | 0.542 | 0.659 | 0.514 | 0.518 | 0.61 | 0.585
19 | LCLC-103H | 0.47 | 0.421 | 0.352 | 0.265 | 0.32 | – | – | – | – | – | 0.853 | 0.763 | 0.802 | 0.806 | 0.806 | 0.452 | 0.546 | 0.466 | 0.441 | 0.5
20 | NCI-H1703 | – | – | – | – | – | 1.31 | 1.2 | 1.11 | 1.07 | 1.49 | 0.144 | 0.13 | 0.101 | – | 0.122 | – | – | – | – | –
21 | NCI-H2023 | 0.496 | 0.366 | 0.207 | 0.0822 | 0.0604 | 1.02 | 0.96 | 0.883 | 0.76 | 0.312 | – | – | – | – | – | 0.505 | 0.442 | 0.349 | 0.442 | 0.399
22 | ABC-1 | 1 | 1.02 | 0.695 | 0.316 | 0.498 | – | – | – | – | – | – | 0.674 | 0.91 | 0.77 | 0.66 | 0.768 | 0.735 | 0.675 | 0.98 | 0.675

From the supplement of paper PMC10307832
